Values of other authors as cited in patent publication US20230027192A1, “METHODS OF USING SOLUBLE SOLID DISPERSIONS OF RIFAXIMIN” (United States Government as Represented by the Department …, priority 2019, published 2023).

What was measured:
[1] = system: secondary/primary bile acid ratio; conditions: patients with compensated cirrhosis
[2] = system: hepatic encephalopathy (HE); conditions: in cirrhosis

For `CO[C@H]1/C=C/O[C@@]2(C)Oc3c(C)c(O)c4c(O)c(c5c(nc6cc(C)ccn65)c4c3C2=O)NC(=O)/C(C)=C\C=C\[C@H](C)[C@H](O)[C@@H](C)[C@@H](O)[C@@H](C)[C@H](OC(C)=O)[C@@H]1C` [rifaximin], the “secondary/primary bile acid ratio” value [1] is given as “reduction” and the “risk of HE recurrence and HE-related hospitalizations” value [2] is given as “reduces the risk”.
